What all share (type): cell-based, HIV-1
One experiment has as its system HIV-IIIb (wildtype). The experiment is described as follows: Antiviral assay in MT4 cells, HIV-IIIb wildtype. The conditions noted are these: Human immunodeficiency virus 1, IIIB, MT4, 120 h, read-out: WT EC50. A digest of the protocol:
(§1)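 MT4 cells were pre-infected 3 h at 37 °C with HIV-IIIb (0.004 m.o.i.): wildtype, or IN T174I virus from breakthrough or from dose-escalation passaging. Cells (2000/well) were exposed to 10-point 3-fold compound dilutions in quadruplicate for 5 days at 37 °C. EC50 was the concentration giving 50% decrease in CellTiter-Glo luminescence.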

In the next experiment the test system is HIV-IIIb IN T174I BT. The experiment is described as follows: Antiviral assay in MT4 cells, HIV-IIIb IN T174I BT virus (from viral breakthrough). The following applies: Human immunodeficiency virus 1, IIIB, MT4, 120 h, read-out: T174I BT EC50, MT4 cells, HIV-IIIb IN T174I BT (viral breakthrough), 5 days, CellTiter-Glo. In short, it runs like this:
as §1

Another experiment concerns HIV-IIIb IN T174I DE. The experiment is described as follows: Antiviral assay in MT4 cells, HIV-IIIb IN T174I DE virus (from dose escalation passaging). The conditions noted are these: Human immunodeficiency virus 1, IIIB, MT4, 120 h, read-out: T174I DE EC50, MT4 cells, HIV-IIIb IN T174I DE (dose escalation), 5 days, CellTiter-Glo. A digest of the protocol: as §1

These results are taken from US10800772B2 (Gilead Sciences, Inc., priority 2016, dated 2020).

In general, EC50 refers to the concentration at which the effect is half-maximal. With `Cc1cc2nc(-c3ccc4c(c3)c(N3CCN(C5COC5)CC3)nn4C)sc2c(-c2ccc(Cl)cc2)c1[C@H](OC(C)(C)C)C(=O)O` [Compound 104, (S)-2-(tert-butoxy)-2-(7-(4-chlorophenyl)-5-methyl-2-(1-methyl-3-(4-(oxetan-3-yl)piperazin-1-yl)-1H-indazol-5-yl)benzo[d]thiazol-6-yl)acetic acid], the EC50 came to 0.011 µM in the experiment on HIV-IIIb (wildtype), 0.491 µM with HIV-IIIb IN T174I BT and 0.904 µM in the experiment on HIV-IIIb IN T174I DE.
Taken in the same sequence, the figures for `Cc1cc2nc(-c3cnc4c(c3)c(C3=CCN(C)CC3)cn4C)sc2c(-c2ccc(Cl)cc2)c1[C@H](OC(C)(C)C)C(=O)O` [Compound 105, (S)-2-(tert-butoxy)-2-(7-(4-chlorophenyl)-5-methyl-2-(1-methyl-3-(1-methyl-1,2,3,6-tetrahydropyridin-4-yl)-1H-pyrrolo[2,3-b]pyridin-5-yl)benzo[d]thiazol-6-yl)acetic acid] were 0.035 µM, 1.46 µM and 2.29 µM.
As for `Cc1cc2nc(-c3cnc4c(c3)c(C3CCN(C)CC3)cn4C)sc2c(-c2ccc(Cl)cc2)c1[C@H](OC(C)(C)C)C(=O)O` [Compound 106, (S)-2-(tert-butoxy)-2-(7-(4-chlorophenyl)-5-methyl-2-(1-methyl-3-(1-methylpiperidin-4-yl)-1H-pyrrolo[2,3-b]pyridin-5-yl)benzo[d]thiazol-6-yl)acetic acid], the EC50 with HIV-IIIb (wildtype) amounted to 0.029 µM; in the experiment with HIV-IIIb IN T174I BT, 0.864 µM; in the experiment on HIV-IIIb IN T174I DE, 3.08 µM.
The like results for `Cc1cc2nc(-c3cnc4c(c3)c(N3CCN(C)CC3)cn4C)sc2c(-c2ccc(Cl)cc2)c1[C@H](OC(C)(C)C)C(=O)O` [Compound 107, (S)-2-(tert-butoxy)-2-(7-(4-chlorophenyl)-5-methyl-2-(1-methyl-3-(4-methylpiperazin-1-yl)-1H-pyrrolo[2,3-b]pyridin-5-yl)benzo[d]thiazol-6-yl)acetic acid] were, in that order, 0.023 µM, 1.11 µM and 2.37 µM.
The like results for `Cc1cc2nc(-c3ccn4ncc(C5CCN(C6COC6)CC5)c4n3)sc2c(-c2ccc(Cl)cc2)c1[C@H](OC(C)(C)C)C(=O)O` [Compound 109, (S)-2-(tert-butoxy)-2-(7-(4-chlorophenyl)-5-methyl-2-(3-(1-(oxetan-3-yl)piperidin-4-yl)pyrazolo[1,5-a]pyrimidin-5-yl)benzo[d]thiazol-6-yl)acetic acid] were, in that order, 0.003 µM, 0.205 µM and 0.614 µM.
The like results for `COC(=O)N1CC(N2CCC(c3cnn4ccc(-c5nc6cc(C)c([C@H](OC(C)(C)C)C(=O)O)c(-c7ccc(Cl)cc7)c6s5)nc34)CC2)C1` [Compound 110, (S)-2-(tert-butoxy)-2-(7-(4-chlorophenyl)-2-(3-(1-(1-(methoxycarbonyl)azetidin-3-yl)piperidin-4-yl)pyrazolo[1,5-a]pyrimidin-5-yl)-5-methylbenzo[d]thiazol-6-yl)acetic acid] were, in that order, 0.002 µM, 0.198 µM and 0.559 µM.
Regarding `Cc1cc2nc(-c3cnc4c(c3)c(N3CCN(C(C)C)CC3)nn4C)sc2c(-c2ccc(Cl)cc2)c1[C@H](OC(C)(C)C)C(=O)O` [Compound 111, (S)-2-(tert-butoxy)-2-(7-(4-chlorophenyl)-2-(3-(4-isopropylpiperazin-1-yl)-1-methyl-1H-pyrazolo[3,4-b]pyridin-5-yl)-5-methylbenzo[d]thiazol-6-yl)acetic acid], the half-maximal effective concentration (EC50) with HIV-IIIb (wildtype) amounted to 0.005 µM; in the experiment on HIV-IIIb IN T174I BT, 1.15 µM; in the experiment on HIV-IIIb IN T174I DE, 2.88 µM.
The like results for `Cc1cc2nc(-c3cnc4c(c3)c(N3CCN(C5COC5)CC3)nn4C)sc2c(-c2ccc(Cl)cc2)c1[C@H](OC(C)(C)C)C(=O)O` [Compound 112, (S)-2-(tert-butoxy)-2-(7-(4-chlorophenyl)-5-methyl-2-(1-methyl-3-(4-(oxetan-3-yl)piperazin-1-yl)-1H-pyrazolo[3,4-b]pyridin-5-yl)benzo[d]thiazol-6-yl)acetic Acid] were, in that order, 0.01 µM, 1.25 µM and 2.11 µM.
As to `Cc1cc2nc(-c3cnc4c(c3)c(C3CCN(C5COC5)CC3)nn4C)sc2c(-c2ccc(Cl)cc2)c1[C@H](OC(C)(C)C)C(=O)O` [Compound 113, (S)-2-(tert-butoxy)-2-(7-(4-chlorophenyl)-5-methyl-2-(1-methyl-3-(1-(oxetan-3-yl)piperidin-4-yl)-1H-pyrazolo[3,4-b]pyridin-5-yl)benzo[d]thiazol-6-yl)acetic acid], the values for the EC50 in the experiment on HIV-IIIb (wildtype), with HIV-IIIb IN T174I BT and in the experiment on HIV-IIIb IN T174I DE were 0.005 µM, 0.871 µM and 1.52 µM, respectively.
Consider `COC(=O)N1CC(N2CCC(c3nn(C)c4ncc(-c5nc6cc(C)c([C@H](OC(C)(C)C)C(=O)O)c(-c7ccc(Cl)cc7)c6s5)cc34)CC2)C1` [Compound 114, (S)-2-(tert-butoxy)-2-(7-(4-chlorophenyl)-2-(3-(1-(1-(methoxycarbonyl)azetidin-3-yl)piperidin-4-yl)-1-methyl-1H-pyrazolo[3,4-b]pyridin-5-yl)-5-methylbenzo[d]thiazol-6-yl)acetic acid], for which the figures for the EC50 with HIV-IIIb (wildtype), with HIV-IIIb IN T174I BT and with HIV-IIIb IN T174I DE were 0.012 µM, 1.08 µM and 2.2 µM, respectively.
Taken in the same sequence, the figures for `CCOC(=O)N1CC(N2CCC(c3nn(C)c4ncc(-c5nc6cc(C)c([C@H](OC(C)(C)C)C(=O)O)c(-c7ccc(Cl)cc7)c6s5)cc34)CC2)C1` [Compound 115, (S)-2-(tert-butoxy)-2-(7-(4-chlorophenyl)-2-(3-(1-(1-(ethoxycarbonyl)azetidin-3-yl)piperidin-4-yl)-1-methyl-1H-pyrazolo[3,4-b]pyridin-5-yl)-5-methylbenzo[d]thiazol-6-yl)acetic acid] were 0.014 µM, 1.6 µM and 2.45 µM.
In the case of `Cc1cc2nc(-c3cnc4c(c3)c(C3CCN(C5CN(C(=O)OC(C)(C)C)C5)CC3)nn4C)sc2c(-c2ccc(Cl)cc2)c1[C@H](OC(C)(C)C)C(=O)O` [Compound 116, (S)-2-(tert-butoxy)-2-(2-(3-(1-(1-(tert-butoxycarbonyl)azetidin-3-yl)piperidin-4-yl)-1-methyl-1H-pyrazolo[3,4-b]pyridin-5-yl)-7-(4-chlorophenyl)-5-methylbenzo[d]thiazol-6-yl)acetic acid], the EC50 amounted to 0.04 µM in the experiment on HIV-IIIb (wildtype), 3.81 µM in the experiment on HIV-IIIb IN T174I BT and 5.19 µM in the experiment with HIV-IIIb IN T174I DE.
The like results for `CC(=O)N1CC(N2CCC(c3nn(C)c4ncc(-c5nc6cc(C)c([C@H](OC(C)(C)C)C(=O)O)c(-c7ccc(Cl)cc7)c6s5)cc34)CC2)C1` [Compound 117, (S)-2-(2-(3-(1-(1-acetylazetidin-3-yl)piperidin-4-yl)-1-methyl-1H-pyrazolo[3,4-b]pyridin-5-yl)-7-(4-chlorophenyl)-5-methylbenzo[d]thiazol-6-yl)-2-(tert-butoxy)acetic acid] were, in that order, 0.027 µM, 1.18 µM and 1.69 µM.
Taken in the same sequence, the figures for `Cc1cc2nc(-c3cnc4c(n3)c(C3CCN(C5COC5)CC3)nn4C)sc2c(-c2ccc(Cl)cc2)c1[C@H](OC(C)(C)C)C(=O)O` [Compound 118, (S)-2-(tert-butoxy)-2-(7-(4-chlorophenyl)-5-methyl-2-(1-methyl-3-(1-(oxetan-3-yl)piperidin-4-yl)-1H-pyrazolo[3,4-b]pyrazin-5-yl)benzo[d]thiazol-6-yl)acetic acid] were 0.004 µM, 0.298 µM and 0.737 µM.
`COC(=O)N1CC(N2CCC(c3nn(C)c4ncc(-c5nc6cc(C)c([C@H](OC(C)(C)C)C(=O)O)c(-c7ccc(Cl)cc7)c6s5)nc34)CC2)C1` [Compound 119, (S)-2-(tert-butoxy)-2-(7-(4-chlorophenyl)-2-(3-(1-(1-(methoxycarbonyl)azetidin-3-yl)piperidin-4-yl)-1-methyl-1H-pyrazolo[3,4-b]pyrazin-5-yl)-5-methylbenzo[d]thiazol-6-yl)acetic acid]: the results for the EC50 in the experiment on HIV-IIIb (wildtype), in the experiment with HIV-IIIb IN T174I BT and in the experiment on HIV-IIIb IN T174I DE were 0.008 µM, 0.31 µM and 0.332 µM, respectively.
Taken in the same sequence, the figures for `CC(=O)N1CC(N2CCC(c3nn(C)c4ncc(-c5nc6cc(C)c([C@H](OC(C)(C)C)C(=O)O)c(-c7ccc(Cl)cc7)c6s5)nc34)CC2)C1` [Compound 120, (S)-2-(2-(3-(1-(1-acetylazetidin-3-yl)piperidin-4-yl)-1-methyl-1H-pyrazolo[3,4-b]pyrazin-5-yl)-7-(4-chlorophenyl)-5-methylbenzo[d]thiazol-6-yl)-2-(tert-butoxy)acetic acid] were 0.003 µM, 0.185 µM and 0.217 µM.
Taken in the same sequence, the figures for `Cc1cc2nc(-c3ccc4c(c3)c(N3CC(C)(C)NC3=O)nn4C)sc2c(-c2ccc(Cl)cc2)c1[C@H](OC(C)(C)C)C(=O)O` [Compound 121, (S)-2-(tert-butoxy)-2-(7-(4-chlorophenyl)-2-(3-(4,4-dimethyl-2-oxoimidazolidin-1-yl)-1-methyl-1H-indazol-5-yl)-5-methylbenzo[d]thiazol-6-yl)acetic acid] were 0.039 µM, 3.48 µM and 2.69 µM.
Taken in the same sequence, the figures for `COCC(C)N1CC(c2nn(C)c3ccc(-c4nc5cc(C)c([C@H](OC(C)(C)C)C(=O)O)c(-c6ccc(Cl)cc6)c5s4)cc23)C1` (stereo partly drawn) [Compound 124, (2S)-2-(tert-butoxy)-2-(7-(4-chlorophenyl)-2-(3-(1-(1-methoxypropan-2-yl)azetidin-3-yl)-1-methyl-1H-indazol-5-yl)-5-methylbenzo[d]thiazol-6-yl)acetic acid] were 0.004 µM, 1.44 µM and 3.44 µM.
